Series [1] has as its system Aedes aegypti (Yellow Fever Mosquito). The series can be described thus: Example B23: Aedes aegypti, dry deposits in 12 well tissue culture plates, control. Format: in vivo. The note with it: application rate of 200 ppm in ethanol, adult females, after 48 h and/or 24 h. How it is done: Test solutions, at an application rate of 200 ppm in ethanol, were applied to 12 well tissue culture plates. Once the deposits were dry, five, two to five day old adult female Aedes aegypti were added to each well, and sustained with a 10% sucrose solution in a cotton wool plug. Assessment of knockdown was made one hour after introduction, and mortality was assessed at 24 and 48 hours after introduction.

In series [2] the test system is Spodoptera littoralis (Egyptian Cotton Leaf Worm). The series can be described thus: Example B17: Spodoptera littoralis, sprayed cotton leaf discs, mortality, anti-feeding effect and growth inhibition. Particulars: foliar, 72 h, application rate of 200 ppm, L1 larvae, 3 days after infestation, read-out: control (at least one of mortality, anti-feedant effect, growth inhibition). Format: in vivo. The method in brief: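 Cotton leaf discs on agar sprayed with aqueous dilutions of 10,000 ppm DMSO stocks, dried, then infested with five L1 larvae. Mortality, anti-feeding and growth inhibition scored against untreated discs 3 days after infestation. Control recorded when any one category exceeds the untreated sample.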

Series [3] has as its system Plutella xylostella (Diamond Back Moth). The series can be described thus: Example B13: Plutella xylostella, treated artificial diet, mortality and growth inhibition. Format: in vivo. The note with it: 120 h, application rate of 200 ppm, L2 larvae, 5 days after infestation, read-out: effect in at least one of the two categories (mortality or growth inhibition). How it is done: 24-well microtiter plates with artificial diet were treated with aqueous test solutions prepared from 10,000 ppm DMSO stock solutions by pipetting. After drying, the plates were infested with L2 larvae (10 to 15 per well). The samples were assessed for mortality and growth inhibition in comparison to untreated samples 5 days after infestation.

In series [4] the test system is Spodoptera littoralis (Egyptian Cotton Leaf Worm). The series can be described thus: Example B19: Spodoptera littoralis, compound in agar absorbed by lettuce roots, anti-feedant effect. Format: in vivo. Particulars: 144 h, test rate of 12.5 ppm, uptake by lettuce roots, Spodoptera eggs, 6 days after infestation, read-out: anti-feeding. The method in brief: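 Compound from DMSO stock mixed into agar; lettuce seedlings took it up via roots over 7 days, then cut leaves were infested with Spodoptera eggs. Anti-feedant effect scored 6 days after infestation relative to untreated samples.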

For series [5], the system named is Diabrotica balteata (Corn Root Worm). The series can be described thus: Example B3: Diabrotica balteata, sprayed maize sprouts, mortality. Particulars: 96 h, application rate of 200 ppm, L2 larvae, 4 days after infestation. Format: in vivo. How it is done:
Maize sprouts placed onto an agar layer in 24-well microtiter plates were treated with aqueous test solutions prepared from 10,000 ppm DMSO stock solutions by spraying. After drying, the plates were infested with L2 larvae (6 to 10 per well). The samples were assessed for mortality 4 days after infestation.

The subject of series [6] is Spodoptera littoralis (Egyptian Cotton Leaf Worm). The series can be described thus: Example B14: Spodoptera littoralis, sprayed cotton leaf discs, anti-feeding effect. The class given is in vivo. Particulars: foliar, 72 h, application rate of 200 ppm, L1 larvae, 3 days after infestation. Summed up: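 Cotton leaf discs on agar sprayed with aqueous test solutions made from 10,000 ppm DMSO stocks, dried, then infested with five L1 larvae. Anti-feeding effect scored 3 days after infestation against untreated discs; control counted when anti-feedant effect exceeds untreated.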

Series [7] shares this test system. The series can be described thus: Example B16: Spodoptera littoralis, sprayed cotton leaf discs, mortality. Format: in vivo. Particulars: foliar, 72 h, application rate of 200 ppm, L1 larvae, 3 days after infestation. How it is done: Cotton leaf discs were placed onto agar in 24-well microtiter plates and sprayed with aqueous test solutions prepared from 10,000 ppm DMSO stock solutions. After drying the leaf discs were infested with five L1 larvae. The samples were assessed for mortality 3 days after infestation.

Series [8] relates to Tetranychus urticae (Two-Spotted Spider Mite). The series can be described thus: Example B21: Tetranychus urticae, sprayed bean leaf discs, mortality. Format: in vivo. Particulars: foliar, 192 h, application rate of 200 ppm, mixed population (mobile stages), 8 days after infestation. How it is done:
Bean leaf discs on agar in 24-well microtiter plates were sprayed with aqueous test solutions prepared from 10,000 ppm DMSO stock solutions. After drying the leaf discs were infested with a mite population of mixed ages. The samples were assessed for mortality on mixed population (mobile stages) 8 days after infestation.

Series [9] concerns Myzus persicae (Green Peach Aphid). The series can be described thus: Example B8: Myzus persicae, sprayed sunflower leaf discs, mortality. Format: in vivo. Particulars: foliar, 144 h, application rate of 200 ppm, leaf disc spray, aphid population of mixed ages, 6 days after infestation. As for the experimental part: Sunflower leaf discs were placed onto agar in a 24-well microtiter plate and sprayed with aqueous test solutions prepared from 10,000 ppm DMSO stock solutions. After drying, the leaf discs were infested with an aphid population of mixed ages. The samples were assessed for mortality 6 days after infestation.

Series [10] deals with Diabrotica balteata (Corn Root Worm). The series can be described thus: Example B2: Diabrotica balteata, sprayed maize sprouts, mortality and growth inhibition. Format: in vivo. The note with it: 96 h, application rate of 200 ppm, L2 larvae, 4 days after infestation, read-out: effect in at least one of the two categories (mortality or growth inhibition). How it is done:
Maize sprouts placed onto an agar layer in 24-well microtiter plates were treated with aqueous test solutions prepared from 10,000 ppm DMSO stock solutions by spraying. After drying, the plates were infested with L2 larvae (6 to 10 per well). The samples were assessed for mortality and growth inhibition in comparison to untreated samples 4 days after infestation.

In series [11] the test system is Euschistus heros (Neotropical Brown Stink Bug). The series can be described thus: Example B5: Euschistus heros, sprayed soybean leaves, mortality. The class given is in vivo. The note with it: 120 h, application rate of 200 ppm, N2 nymphs, 5 days after infestation. How it is done: Soybean leaves on agar in 24-well microtiter plates were sprayed with aqueous test solutions prepared from 10,000 ppm DMSO stock solutions. After drying the leaves were infested with N2 nymphs. The samples were assessed for mortality 5 days after infestation.

The test system of series [12] is Plutella xylostella (Diamond Back Moth). The series can be described thus: Example B12: Plutella xylostella, treated artificial diet, mortality. The class given is in vivo. The note with it: 120 h, application rate of 200 ppm, L2 larvae, 5 days after infestation. As for the experimental part: 24-well microtiter plates with artificial diet were treated with aqueous test solutions prepared from 10,000 ppm DMSO stock solutions by pipetting. After drying, the plates were infested with L2 larvae (10 to 15 per well). The samples were assessed for mortality 5 days after infestation.

Series [13] has as its system Spodoptera littoralis (Egyptian Cotton Leaf Worm). The series can be described thus: Example B20: Spodoptera littoralis, compound in agar absorbed by lettuce roots, mortality. The class given is in vivo. The note with it: 144 h, test rate of 12.5 ppm, uptake by lettuce roots, Spodoptera eggs, 6 days after infestation. Summed up: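 Compound from a 10,000 ppm DMSO stock mixed into agar; lettuce grown on it for 7 days to take up compound via roots, then leaves cut into lid plate. Spodoptera eggs applied on humid blotting paper; mortality scored 6 days after infestation.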

The test system of series [14] is Plutella xylostella (Diamond Back Moth). The series can be described thus: Example B10: Plutella xylostella, treated artificial diet, growth inhibition. Format: in vivo. The note with it: 120 h, application rate of 200 ppm, L2 larvae, 5 days after infestation. Summed up: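 Artificial diet treated with aqueous dilutions prepared from 10,000 ppm DMSO stocks, dried, then infested with 10-15 L2 larvae per well. Growth inhibition scored against untreated samples 5 days after infestation.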

Series [15] concerns Euschistus heros (Neotropical Brown Stink Bug). The series can be described thus: Example B6: Euschistus heros, sprayed soybean leaves, mortality and growth inhibition. Format: in vivo. The note with it: 120 h, application rate of 200 ppm, N2 nymphs, 5 days after infestation, read-out: effect in at least one of the two categories (mortality or growth inhibition). How it is done:
Soybean leaves on agar in 24-well microtiter plates were sprayed with aqueous test solutions prepared from 10,000 ppm DMSO stock solutions. After drying the leaves were infested with N2 nymphs. The samples were assessed for mortality and growth inhibition in comparison to untreated samples 5 days after infestation.

Series [16] concerns Spodoptera littoralis (Egyptian Cotton Leaf Worm). The series can be described thus: Example B18: Spodoptera littoralis, compound in agar absorbed by lettuce roots, mortality, anti-feedant effect and growth inhibition. Format: in vivo. Particulars: 144 h, test rate of 12.5 ppm, uptake by lettuce roots, Spodoptera eggs, 6 days after infestation, read-out: effect in at least one of the three categories (mortality, anti-feeding, or growth inhibition). The method in brief: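 Compound from 10,000 ppm DMSO stock mixed into agar; lettuce seeds grew 7 days, taking compound up via roots into the lid plate. Cut leaves infested with Spodoptera eggs; mortality, anti-feedant effect and growth inhibition scored against untreated samples 6 days after infestation.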

Series [17] deals with Myzus persicae (Green Peach Aphid). The series can be described thus: Example B9: Myzus persicae, roots of pea seedlings in test solution, mortality. Format: in vivo. The note with it: 144 h, test rate of 24 ppm, 6 days. How it is done: Roots of pea seedlings infested with an aphid population of mixed ages were placed directly into aqueous test solutions prepared from 10,000 DMSO stock solutions. The samples were assessed for mortality 6 days after placing seedlings into test solutions.

As for `CCS(=O)(=O)c1cc(-c2cc(F)cc(F)c2)cnc1-c1cn2cnc(C(F)(F)F)cc2n1` [Compound P14], the pest or weed control at 200 ppm in series [1] and in series [6] was not below 80% in each case. In series [2], the percent control (mortality, anti-feedant effect or growth inhibition) at 200 ppm was not below 80%. In addition, the percent effect (mortality or growth inhibition) at 200 ppm in series [3], in [10] and in series [15] was not below 80% throughout. For the same molecule, the pest or weed control at 12.5 ppm in series [4] is not below 80%. In addition, the mortality at 200 ppm in series [5], in series [7], in [8], in [9], in series [11] and in series [12] was not below 80% each time. The same molecule came in with a mortality at 12.5 ppm in [13] not below 80%. Also, the inhibition at 200 ppm in series [14] is not below 80%. In series [16], the percent effect (mortality, anti-feeding or growth inhibition) at 12.5 ppm was not below 80%.
Take `CCS(=O)(=O)c1cc(CC#N)cnc1-c1cn2cnc(C(F)(F)F)cc2n1` [Compound P30, 2-[5-ethylsulfonyl-6-[7-(trifluoromethyl)imidazo[1,2-c]pyrimidin-2-yl]-3-pyridyl]acetonitrile]: the percent effect (mortality or growth inhibition) at 200 ppm in series [3], in [10] and in [15] was not below 80% each time. Moreover, the mortality at 24 ppm in series [17] is not below 80%. In addition, the mortality at 200 ppm in [5] and in [11] was not below 80% in each case. In series [14], this molecule yielded an inhibition at 200 ppm not below 80%.
In turn, `C=Cc1cnc(-c2cn3cnc(C(F)(F)F)cc3n2)c(S(=O)(=O)CC)c1` [Example H6, 2-(3-ethylsulfonyl-5-vinyl-2-pyridyl)-7-(trifluoromethyl)imidazo[1,2-c]pyrimidine] registered a melting point of 174 to 176 °C.

These data come from patent US10645928B2, “Pesticidally active polycyclic derivatives with sulfur containing substituents” (Syngenta Participations AG, priority 2014, dated 2020).
